Assays:
[1] = system: MV4-11; experiment: Antiproliferative activity against human MV4-11 cells assessed as cell growth inhibition after 4 days by CCK8 assay; format: functional, cell-based; conditions: MV4-11, 96 h
[2] = target: T1, Bromodomain-containing protein 4 (Homo sapiens, UniProt O60885); experiment: Binding affinity to human recombinant BRD4 BD1 (44 to 168 residues) by fluorescence polarization assay
[3] = target: T1, Bromodomain-containing protein 4; experiment: Binding affinity to human recombinant BRD4 BD2 (333 to 460 residues) by fluorescence polarization assay
[4] = target: T2, Bromodomain-containing protein 3 (Homo sapiens, UniProt Q15059); experiment: Binding affinity to human recombinant BRD3 BD1 (24 to 144 residues) by fluorescence polarization assay
Target sequence in this assay (Q15059 whole entry, the tested form may be a part): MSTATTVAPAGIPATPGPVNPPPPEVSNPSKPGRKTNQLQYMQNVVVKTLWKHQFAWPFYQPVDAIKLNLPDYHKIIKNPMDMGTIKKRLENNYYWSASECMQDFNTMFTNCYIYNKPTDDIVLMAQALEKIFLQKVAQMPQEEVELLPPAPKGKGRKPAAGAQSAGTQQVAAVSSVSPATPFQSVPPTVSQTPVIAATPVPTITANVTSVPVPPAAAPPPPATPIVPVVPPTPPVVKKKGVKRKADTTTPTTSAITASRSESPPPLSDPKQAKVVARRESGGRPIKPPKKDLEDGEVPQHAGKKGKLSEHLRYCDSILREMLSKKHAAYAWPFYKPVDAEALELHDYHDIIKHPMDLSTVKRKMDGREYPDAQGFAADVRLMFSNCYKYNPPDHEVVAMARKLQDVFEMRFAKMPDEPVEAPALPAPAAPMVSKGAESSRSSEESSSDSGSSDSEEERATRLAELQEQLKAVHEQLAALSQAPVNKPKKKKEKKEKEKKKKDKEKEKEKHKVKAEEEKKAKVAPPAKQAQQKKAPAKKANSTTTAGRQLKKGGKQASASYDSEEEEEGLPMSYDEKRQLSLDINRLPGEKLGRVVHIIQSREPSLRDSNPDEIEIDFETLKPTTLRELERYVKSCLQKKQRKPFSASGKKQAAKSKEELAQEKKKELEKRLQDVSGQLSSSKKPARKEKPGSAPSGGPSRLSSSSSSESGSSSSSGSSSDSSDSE

[5] = target: T2, Bromodomain-containing protein 3; experiment: Binding affinity to human recombinant BRD3 BD2 (306 to 417 residues) by fluorescence polarization assay
Target sequence in this assay (Q15059 whole entry, the tested form may be a part): as above

[6] = target: T3, Bromodomain-containing protein 2 (Homo sapiens, UniProt P25440); experiment: Binding affinity to human recombinant BRD2 BD1 (72 to 205 residues) by fluorescence polarization assay
T3 sequence (P25440 whole entry, the tested form may be a part): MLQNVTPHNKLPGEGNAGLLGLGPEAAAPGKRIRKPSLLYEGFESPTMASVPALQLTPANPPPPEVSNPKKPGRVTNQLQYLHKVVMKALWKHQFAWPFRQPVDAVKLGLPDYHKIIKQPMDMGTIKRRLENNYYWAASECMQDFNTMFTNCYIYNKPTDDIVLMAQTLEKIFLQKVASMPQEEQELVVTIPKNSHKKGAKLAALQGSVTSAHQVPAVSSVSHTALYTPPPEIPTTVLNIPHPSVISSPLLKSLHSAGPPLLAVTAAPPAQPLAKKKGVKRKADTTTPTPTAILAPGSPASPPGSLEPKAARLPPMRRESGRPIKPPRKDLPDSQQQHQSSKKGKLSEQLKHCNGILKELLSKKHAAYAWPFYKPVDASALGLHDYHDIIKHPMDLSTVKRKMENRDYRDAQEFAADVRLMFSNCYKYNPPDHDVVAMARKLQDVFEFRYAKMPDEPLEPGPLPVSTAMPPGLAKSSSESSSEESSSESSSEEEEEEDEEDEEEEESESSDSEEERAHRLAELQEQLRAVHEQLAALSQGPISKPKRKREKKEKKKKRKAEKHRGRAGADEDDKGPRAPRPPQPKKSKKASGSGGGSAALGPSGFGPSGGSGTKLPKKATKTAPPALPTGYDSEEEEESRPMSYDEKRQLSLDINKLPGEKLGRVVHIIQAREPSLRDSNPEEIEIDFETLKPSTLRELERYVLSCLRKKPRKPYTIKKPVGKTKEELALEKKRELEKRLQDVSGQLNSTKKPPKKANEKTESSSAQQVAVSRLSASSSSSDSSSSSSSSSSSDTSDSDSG

[7] = target: T3, Bromodomain-containing protein 2; experiment: Binding affinity to human recombinant BRD2 BD2 (349 to 460 residues) by fluorescence polarization assay
[8] = system: MM1.S; experiment: Antiproliferative activity against human MM1S cells assessed as cell growth inhibition after 4 days by CCK8 assay; format: functional, cell-based; conditions: 96 h
[9] = target: T2, Bromodomain-containing protein 3; experiment: Selectivity index, ratio of Ki for human recombinant BRD3 BD1 (24 to 144 residues) to Ki for human recombinant BRD3 BD2 (306 to 417 residues)
Target sequence in this assay (Q15059 2-726 limits assumed): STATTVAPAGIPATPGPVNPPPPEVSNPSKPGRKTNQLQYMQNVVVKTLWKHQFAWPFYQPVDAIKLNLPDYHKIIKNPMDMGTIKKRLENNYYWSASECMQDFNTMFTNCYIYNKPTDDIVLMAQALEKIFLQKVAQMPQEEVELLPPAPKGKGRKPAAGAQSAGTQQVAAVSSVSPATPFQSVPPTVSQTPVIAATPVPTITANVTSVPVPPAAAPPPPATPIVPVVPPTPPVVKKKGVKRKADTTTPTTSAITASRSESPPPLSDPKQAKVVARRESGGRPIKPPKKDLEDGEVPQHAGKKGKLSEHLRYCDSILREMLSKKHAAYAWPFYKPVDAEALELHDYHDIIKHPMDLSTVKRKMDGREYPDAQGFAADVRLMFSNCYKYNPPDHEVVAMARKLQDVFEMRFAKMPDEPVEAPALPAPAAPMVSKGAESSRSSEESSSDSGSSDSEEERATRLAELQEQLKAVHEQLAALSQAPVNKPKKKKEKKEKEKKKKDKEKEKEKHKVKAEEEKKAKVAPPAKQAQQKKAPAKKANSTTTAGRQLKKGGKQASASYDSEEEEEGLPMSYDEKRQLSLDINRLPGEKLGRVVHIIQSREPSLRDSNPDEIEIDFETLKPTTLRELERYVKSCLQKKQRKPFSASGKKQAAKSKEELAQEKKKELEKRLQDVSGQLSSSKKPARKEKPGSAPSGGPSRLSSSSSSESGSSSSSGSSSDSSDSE

[10] = system: MV4-11; experiment: Downregulation of cMyc mRNA expression in human MV4-11 cells after 24 hrs by qRT-PCR analysis; format: functional, cell-based
[11] = system: MV4-11; experiment: Upregulation of p21 mRNA expression in human MV4-11 cells after 24 hrs by qRT-PCR analysis; format: functional, cell-based
[12] = system: HepG2; experiment: Downregulation of ARID5B in human HepG2 cells after 4 hrs by qRT-PCR analysis; format: functional, cell-based
[13] = system: HepG2; experiment: Downregulation of G6PC in human HepG2 cells after 4 hrs by qRT-PCR analysis; format: functional, cell-based
[14] = system: HepG2; experiment: Downregulation of […] in human HepG2 cells after 4 hrs by qRT-PCR analysis; format: functional, cell-based
[15] = system: MV4-11; experiment: Decrease in c-Myc protein expression in human MV4-11 cells incubated for 24 hrs by western blot analysis; format: functional, cell-based
[16] = system: MV4-11; experiment: Increase in p21 protein expression in human MV4-11 cells incubated for 24 hrs by western blot analysis; format: functional, cell-based

Row | Structure (SMILES) | IC50 [1] [nM] | Ki [2] [nM] | Ki [3] [nM] | Ki [4] [nM] | Ki [5] [nM] | Ki [6] [nM] | Ki [7] [nM] | IC50 [8] [nM] | Ratio Ki [9] | inhibition [10] | Activity [11] | inhibition [12] | inhibition [13] | inhibition [14] | inhibition [15] | Activity [16]
1 | Cc1nnc2n1-c1ccc(-c3cn[nH]c3)cc1C(Nc1ccc(Cl)cc1)CC2 (stereo not given) | 99.1 | 126 | 15.9 | 114 | 13.9 | 270 | 19.1 | 259 | 8 |  |  |  |  |  |  | 
2 | CCn1cc(-c2ccc3c(c2)C(Nc2ccc(Cl)cc2)CCc2nnc(C)n2-3)cn1 (stereo not given) | 94.6 | 77.2 | 14.8 | 99.7 | 8.2 | 193 | 8.9 | 63.5 | 12 |  |  |  |  |  |  | 
3 | Cc1sc2c(c1C)C(c1ccc(Cl)cc1)=N[C@@H](CC(=O)Nc1ccc(O)cc1)c1nnc(C)n1-2 [BIRABRESIB] | 17.6 |  |  |  |  |  |  | 22.7 |  | Dose-dependent effect | Dose-dependent effect | Dose-dependent effect | Dose-dependent effect | Dose-dependent effect | Dose-dependent effect | Dose-dependent effect
4 | Cc1nnc2n1-c1ccc(-c3cnn(C)c3)cc1[C@@H](Nc1ccc(Cl)cc1)CC2 | 7730 | 5000 | 945 |  |  |  |  | 4240 |  |  |  |  |  |  |  | 
5 | Cc1nnc2n1-c1ccc(NC(=O)C3CCN(C)CC3)cc1C(Nc1ccc(Cl)cc1)CC2 (stereo not given) | 2410 | 1490 | 102 |  |  |  |  | 8510 |  |  |  |  |  |  |  | 
6 | Cc1nnc2n1-c1ccc(-c3ccc(CCCN4CCN(C)CC4)cc3)cc1C(Nc1ccc(Cl)cc1)CC2 (stereo not given) | 127 | 81.7 | 12.3 |  |  |  |  | 110 |  |  |  |  |  |  |  | 
7 | COc1ccc2c(c1)C(Nc1ccc(Cl)cc1)CCc1nnc(C)n1-2 (stereo not given) | 1160 | 1300 | 249 |  |  |  |  | 1400 |  |  |  |  |  |  |  | 
8 | Cc1nnc2n1-c1ccc(-c3ccc(CN4CCN(C)CC4)cc3)cc1C(Nc1ccc(Cl)cc1)CC2 (stereo not given) | 112 | 271 | 18 |  |  |  |  | 241 |  |  |  |  |  |  |  | 
9 | Cc1nnc2n1-c1ccc(-c3cnn(C)c3)cc1C(Nc1ccc(Cl)cc1)CC2 (stereo not given) | 84.4 | 144 | 14.8 | 188 | 11.1 | 275 | 9.1 | 64.4 | 17 |  |  |  |  |  |  | 
10 | Cc1nnc2n1-c1ccc(-c3cnn(C)c3)cc1C(Nc1cccc3ccccc13)CC2 (stereo not given) | 107 | 294 | 21.3 |  |  |  |  | 533 |  |  |  |  |  |  |  | 
